*1 amine or outer side, *2 acyl side, *3 side chain or, on linkers, in order; H or OH if unused. Where a SMILES comes first, the peptide text is derived from it. Side-chain parts run from the residue outwards. [ ]: non-standard residue; d: D form. The star is where a group is joined. Ethylenediamine = C(CN[*:2])N[*:1]; Hyp = O=C(O)[CH]1C[CH](O)CN1; Phg = N[CH](C(=O)O)c1ccccc1; CO = O=C([*:1])[*:2]; Bn = c1ccc(C*)cc1
Tests used:
Pancreas = test: Microarray gene expression profiling (HG-U95A), pancreas; assay type: in vivo, cynomolgus monkeys
Method: (§1) Origin of tissue and processing. Male and female cynomolgus monkeys received subcutaneously pasireotide (100 μg/animal/day) or the vehicle for 14 days. On day 15, all animals were sacrificed and tissues for RNA extraction were immediately snap-frozen and kept at −80° C. until processing.
(§2) RNA expression profiling was conducted by means of the HG-U95A gene expression probe array (Affymetrix; Santa Clara, Calif. USA), containing more than 12,600 probe sets interrogating primarily full-length human genes and also some control probe sets. The experiment was conducted according to the recommendations of the manufacturer. Briefly, total RNA was obtained by acid guanidinium thiocyanate-phenol-chloroform extraction (Trizol®, Invitrogen Life Technologies, San Diego, Calif. USA) from each frozen tissue section. The total RNA was then purified on an affinity resin (Rneasy®, Qiagen) and quantified. Double stranded cDNA was synthesized with a starting amount of approximately 5 μg full-length total RNA using the Superscript® Choice System (Invitrogen Life Technologies, Carlsbad, Calif. USA) in the presence of a T7-(dT)24 DNA oligonucleotide primer. Following synthesis, the cDNA was purified by phenol/chloroform/isoamyl alcohol extraction and ethanol precipitation. The purified cDNA was then transcribed in vitro using the BioArray® High Yield RNA Transcript Labeling Kit (ENZO, Farmingdale, N.Y. USA) in the presence of biotinylated ribonucleotides form biotin labelled cRNA. The labelled cRNA was then purified on an affinity resin (Rneasy®, Qiagen), quantified and fragmented. An amount of approximately 10 μg labelled cRNA was hybridized for 16 hours at 45° C. to an expression probe array. The array was then washed and stained twice with streptavidin-phycoerythrin (Molecular Probes,) using the GeneChip® Fluidics Workstation 400 (Affymetrix, Santa Clara, Calif. USA). The array was then scanned twice using a confocal laser scanner (GeneArray® Scanner, Agilent, Palo Alto, Calif. USA) resulting in one scanned image. This resulting “.dat-file” was processed using the MAS4 program (Affymetrix) into a “.cel-file”. The “.cel file” was captured and loaded into the Affymetrix GeneChip® Laboratory Information Management System (LIMS). The LIMS database is connected to a UNIX Sun Solaris server through a network filing system that allows for the average intensities for all probes cells (CEL file) to be downloaded into an Oracle database (NPGN). Raw data was converted to expression levels using a “target intensity” of 150. The data were evaluated for quality control and loaded in the GeneSpring® software 4.2.4 (Silicon Genetics, Calif. USA) for analysis.
(§3) On the human Affymetrix HGU95Av2 chip, probe sets for individual genes contain 20 oligonucleotide pairs, each composed of a “perfect match” 25-mer and a “mismatch” 25-mer differing from the “perfect” match oligonucleotide at a single base. After probe labelling, hybridization, and laser scanning, the expression level was estimated by averaging the differences in signal intensity measured by oligonucleotide pairs of a given probe (AvgDiff value). The fold changes and directions were calculated for selected genes, from the differences of the AvgDiff values between controls and treated.
(§4) To identify genes that were impacted by pasireotide, the dataset was initially filtered to exclude in a first wave of analysis, genes whose values were systematically in the lower expression ranges where the experimental noise is high (at least 80 in a number of experiments corresponding to the smallest number of replicas of any experimental point). In a second round of selection a threshold p-value of 0.05 (based on a t-test) identified differences between treated and control based on a two component error model (Global Error Model) and, whenever possible, with a stepdown correction for multi-hypothesis testing (Benjamini and Hochberg false discovery rate). […]

Thyroid = test: Microarray gene expression profiling (HG-U95A), thyroid; assay type: in vivo, cynomolgus monkeys
Method: as §1, §2, §3, §4

[1] = ↑ vs control, 100 μg/animal/day s.c., 14 days
[2] = ↓ vs control, 100 μg/animal/day s.c., 14 days
[3] = ↑ increase, treated vs controls
[4] = ↓ decrease, treated vs controls

## NCCCCC1NC(=O)C(Cc2c[nH]c3ccccc23)NC(=O)C(c2ccccc2)NC(=O)C2CC(OC(=O)NCCN)CN2C(=O)C(Cc2ccccc2)NC(=O)C(Cc2ccc(OCc3ccccc3)cc2)NC1=O (stereo not drawn) [Pasireotide, cyclo[4-(NH2—C2H4—NH—CO—O)Pro-Phg-DTrp-Lys-Tyr(4-Bzl)-Phe]] (cyclo(F[Hyp]([CO-Ethylenediamine])[Phg]WKY(Bn)); configuration not given here)
Pancreas; 0.1 mg/animal/14day
  IGF-1 expression level, AvgDiff (range): 89 (20 to 298)
  SSTR2 expression level, AvgDiff (range): 156 (120 to 210)
Pancreas; [1]
  Cdki 1C transcript fold change: Cdki 1C ↑ x2
  Chymotrypsin-like transcript fold change: ↑ x3.5
  Cyclin D1 transcript fold change: Cyclin D1 ↑ x2
  GLUR precursor, flip isoform transcript fold change: flip isoform ↑ x3
  IFN regulatory factor 3 transcript fold change: factor 3 ↑ x5
  IGF-1 transcript fold change: IGF-1 ↑ x4.5
  IP-1-phosphatase transcript fold change: ↑ x2.5
  Integrin α 2b precursor transcript fold change: precursor ↑ x1.5
  Na+ channel, voltage-gated, type 1, β polypeptide transcript fold change: ↑ x2
  PDGFR α transcript fold change: PDGFR α ↑ x2.5
  PDGFR, α polypeptide transcript fold change: ↑ x1.5
  PI-4-kinase, catalytic, α polypeptide transcript fold change: α polypeptide ↑ x1.5
  PL A2, group IVC (cytosolic, calcium-independent) transcript fold change: independent) ↑ x1.5
  Prostacyclin synthase transcript fold change: synthase ↑ x2
  THR interactor 10 transcript fold change: ↑ x2.5
  Thrombospondin 2 transcript fold change: ↑ x3.5
Pancreas; [2]
  BCL2/adenovirus E1B 19 kD-intracting protein 1, isoform BNIP1-a transcript fold change: BNIP1-a ↓ x1.5
  CRHR 1 transcript fold change: CRHR 1 ↓ x2
  Ca++ channel, voltage dependent, α 1F subunit transcript fold change: ↓ x4.5
  Cyclin T2 transcript fold change: Cyclin T2 ↓ x2
  G-CSF protein transcript fold change: ↓ x2
  Gastrin-releasing peptide receptor transcript fold change: ↓ x5
  IL 1 receptor antagonist transcript fold change: antagonist↓ x2
  K+ voltage-gated channel, KQT-like subfamily, member3 transcript fold change: ↓ x2.5
  Neuro-blastoma apoptosis-related RNA binding protein transcript fold change: protein ↓ x3
  Phosphotyrosine independent ligand p62B for the Lck SH2 domain B-cell isoform transcript fold change: isoform ↓ x2
  Smad 3 transcript fold change: Smad 3 ↓ x1.5
  THR binding protein transcript fold change: protein ↓ x2
Thyroid; 0.1 mg/animal/14day
  IGF-1 expression level, AvgDiff (range): 58 (20 to 114)
Thyroid; direction only, treated vs controls
  Endothelial differentiation-related factor 1 RNA expression change: related factor 1 ↑
Thyroid; [3]
  CD2 antigen (cytoplasmic tail)-binding protein 2 RNA expression fold change: ↑ x3.5
  Cadherin 13, H-cadherin (heart) RNA expression fold change: ↑ x2
  Cannabinoid receptor 2 (macrophage) RNA expression fold change: ↑ x3
  GABA (B) receptor 1, isoform a precursor RNA expression fold change: ↑ x2.5
  IFNα-inducible protein 27 RNA expression fold change: protein 27 ↑ x3
  IFNγ-inducible protein 30 RNA expression fold change: ↑ x3.5
  PDGF-associated Protein RNA expression fold change: Protein ↑ x2
  PDGFR β RNA expression fold change: ↑ x2
  Phosphatidyl ethanolamine N-methyl-transferase RNA expression fold change: ↑ x2
  Pro-platelet basic protein (includes platelet basic protein, β-thromboglobulin, connective tissue-activating peptide III, neu) 2 RNA expression fold change: 2 ↑ x3.5
  RANTES RNA expression fold change: ↑ x10.5
  Solute carrier family 21 (PG transporter), member 2 RNA expression fold change: member 2 ↑ x2
  TNF (ligand) superfamily, member 10 RNA expression fold change: ↑ x2
  Thrombospondin 2 RNA expression fold change: spondin 2 ↑ x2
  VWF precursor RNA expression fold change: precursor ↑ x2
Thyroid; [4]
  ATPase, Ca++ transporting, cardiac muscle, fast twitch 1 RNA expression fold change: ↓ x4.5
  Adenylate cyclase activating polypeptide precursor RNA expression fold change: ↓ x1.5
  Adrenergic, α-2C-, receptor RNA expression fold change: ↓ x2.5
  Bcl-2 binding component 3 RNA expression fold change: ↓ x2
  Brain cannabinoid receptor 1 RNA expression fold change: ↓ x2
  CD2 antigen (p50), sheep red blood cell receptor RNA expression fold change: ↓ x7.5
  COL1A1 and PDGFB fusion transcript RNA expression fold change: transcript ↓ x6
  Calcium/calmodulin dependent protein kinase 1 RNA expression fold change: ↓ x2
  Calcium/calmodulin-dependent PK IV RNA expression fold change: IV ↓ x7.5
  Calmodulin-dependent PK IV (CaM-kinase IV) RNA expression fold change: IV) ↓ x7.5
  Cdc-like 5 (cholinesterase-related cell division controller) RNA expression fold change: ↓ x2
  Cdk 5, regulatory subunit 1 (p35) RNA expression fold change: ↓ x5
  Chemokine (C-X-C motif), receptor 4 (fusin) RNA expression fold change: (fusin) ↓ x3
  Cholecystokinin B receptor RNA expression fold change: B receptor ↓ x3
  Cyclin B2 RNA expression fold change: ↓ x2.5
  DAG 1 kinase, α (80 kD) RNA expression fold change: ↓ x4
  EGF-like module containing, mucin-like, hormone receptor-like sequence 1 RNA expression fold change: ↓ x5
  FKBP-associated protein RNA expression fold change: protein ↓ x2.5
  Flt3 ligand RNA expression fold change: Flt3 ligand ↓ x4.5
  Fms-related tyrosine kinase 1(VEGF/vascular permeability factor receptor) RNA expression fold change: ↓ x2
  GABA (A) receptor, γ2 precursor RNA expression fold change: ↓ x1.5
  Gastric inhibitory polypeptide 1 receptor RNA expression fold change: receptor ↓ x2
  Glutamate receptor, metabotropic 2 precursor RNA expression fold change: precursor ↓ 3.5
  Growth arrest-specific 1 RNA expression fold change: ↓ x2.5
  IFNγ responsive transcript RNA expression fold change: transcript ↓ x1.5
  IGF-1 RNA expression fold change: IGF-1 ↓ x1.5
  IL2-inducible T-cell kinase RNA expression fold change: cell kinase ↓ x12
  IL9 receptor RNA expression fold change: ↓ x2
  IP3 receptor type 3 RNA expression fold change: ↓ x1.5
  K+ voltage-gated channel, shaker-related subfamily, member 3 RNA expression fold change: ↓ x4.5
  LTB4 receptor (chemokine receptor-like 1) RNA expression fold change: ↓ x1.5
  Lymphocyte specific protein tyrosine kinase RNA expression fold change: ↓ x4
  P56lck RNA expression fold change: P56lck ↓ x18
  PDGFR α RNA expression fold change: ↓ x3
  PIP 5-phosphatase type IV RNA expression fold change: x3
  PLC, γ 1 (formerly subtype 148) RNA expression fold change: 148) ↓ x2
  RAG1 RNA expression fold change: RAG1 ↓ x18
  RAG2 RNA expression fold change: RAG2 ↓ x5
  SH2 domain protein 1A, Duncan's disease (lymphoproliferative syndrome) RNA expression fold change: ↓ x7.5
  Signalling lymphocytic activation molecule RNA expression fold change: molecule ↓ x4.5
  TCR ζ chain precursor RNA expression fold change: precursor ↓ x5.5
  TSHR RNA expression fold change: TSHR ↓ x2
  Transcription factor 7 (T-cell specific, HMG-box) RNA expression fold change: box) ↓ x16.5
  c-AMP responsive element binding protein 1 RNA expression fold change: protein 1 ↓ x2

Reference: patent publication US20070275382A1, “Biomarkers for the Efficacy of Somatostatin Analogue Treatment” (priority 2003, published 2007)
